Data on 54 compounds can be found in PubChem BioAssay AID1117324 (Cheminformatics & Chemogenomics Research Group (CCRG), …, 2015).

SMILES strings stand for the structures. pIC50: −log10 of the molar value. The source made the active and inactive calls. No rule for the calls is given here.

For the assay, the system named is VEGF-stimulated ADSC/ECFC co-culture, nuclear area imaging. The assay is described as follows: nuclear area loss in endothelial-stromal co-culture, dose response, cell-based, VEGF stimulation, IC50 (AID 1117324).
As for `Oc1c(Cl)cc(Cl)cc1Sc1cc(Cl)cc(Cl)c1O`, the IC50 (commonly the midpoint of a concentration-inhibition curve) is > 10 µM (inactive).
Consider `Cc1ccc(Nc2c(F)cccc2Cl)c(CC(=O)O)c1`, for which the IC50 was > 10 µM (inactive).
Turning to `Cc1cc2nc3ccc(=[N+](C)C)cc-3sc2cc1N`, the IC50 is 8.15 µM (inactive).
As for `CC(=O)N(O)CCCCCNC(=O)CCC(=O)N(O)CCCCCNC(=O)CCC(=O)N(O)CCCCCN`, the IC50 is > 10 µM (inactive).
`CC(C)(C)CC(C)(C)c1ccc(O)cc1`: the IC50 is 9.11 µM (inactive).
Consider `Cc1nc2ccc(CN(C)c3ccc(C(=O)N[C@@H](CCC(=O)O)C(=O)O)s3)cc2c(=O)[nH]1`, for which the IC50 was > 10 µM (inactive).
With `NC(=NCCCCCCN=C(N)/N=C(\N)Nc1ccc(Cl)cc1)/N=C(\N)Nc1ccc(Cl)cc1`, the IC50 is > 10 µM (inactive).
On to `O=C1c2c(O)cccc2Cc2cccc(O)c21`, for which the IC50 is > 10 µM (inactive).
Regarding `COc1ccc(-c2ccc3cc(C(=O)O)ccc3c2)cc1C12CC3CC(CC(C3)C1)C2`, the IC50 is > 10 µM (inactive).
In the case of `COC(=O)N[C@H](C(=O)N[C@@H](Cc1ccccc1)[C@@H](O)CN(Cc1ccc(-c2ccccn2)cc1)NC(=O)[C@@H](NC(=O)OC)C(C)(C)C)C(C)(C)C`, the IC50 is > 10 µM (inactive).
Take `O=C1NCCN1CCN1CCC(c2cn(-c3ccc(F)cc3)c3ccc(Cl)cc23)CC1`: the IC50 was > 10 µM (inactive).
Regarding `CC(C)=CCNc1ncnc2c1ncn2[C@@H]1O[C@H](CO)[C@@H](O)[C@H]1O`, the IC50 was > 10 µM (inactive).
For `CCCCCCCCCCCCCCCCNc1ccc(C(=O)O)cc1`, the IC50 was > 10 µM (inactive).
`CCN[C@@H](C)Cc1cccc(C(F)(F)F)c1`: the IC50 is > 10 µM (inactive).
As for `CC(C)C[C@H](NC(=O)[C@H](CCc1ccccc1)NC(=O)CN1CCOCC1)C(=O)N[C@@H](Cc1ccccc1)C(=O)N[C@@H](CC(C)C)C(=O)[C@@]1(C)CO1`, the pIC50 – broadly, −log10 of the IC50, conventionally taken in molar units – was 6.54.
As to `CC(=O)Nc1ccn(C2COC(COC(=O)c3ccccc3)O2)c(=O)n1` (centres undefined), the IC50 was > 10 µM (inactive).
`CCC=CCC=CCC=CCCCCCCCC(=O)O`: the IC50 is > 10 µM (inactive).
Same read-out and setting: under `CCCCCCCCCCOCC(O)CN` (centres undefined) stands > 10 µM (inactive); under `CC[N+](CC)(CC)CCOc1ccc(/C=C/c2ccccc2)cc1`, > 10 µM (inactive).
As for `Clc1ccc(C(Cn2ccnc2)OCc2ccsc2Cl)c(Cl)c1` (centres undefined), the IC50 was 9.47 µM (inactive).
With `O=C1CC[C@H](C(=O)N2CCCCC2)N1`, the IC50 is > 10 µM (inactive).
The same measure, in the same setting: under `CC1=C(/C=C/C(C)=C/C=C/C(C)=C/C(=O)Nc2ccc(O)cc2)C(C)(C)CCC1` stands 6.24 µM (inactive).
Regarding `CCOC(=O)C1=C(C)NC(C)=C(C(=O)OCC)C1c1ccccc1/C=C/C(=O)OC(C)(C)C`, the IC50 was > 10 µM (inactive).
In the case of `Cc1cc(OI)c(C(C)C)cc1-c1cc(C(C)C)c(OI)cc1C`, the IC50 is > 10 µM (inactive).
As to `Nc1cc(C(F)(F)F)ccc1S`, the IC50 is > 10 µM (inactive).
For `COc1cc(-c2ccc(=O)[nH]n2)ccc1OC(F)F`, the IC50 was > 10 µM (inactive).
Still for that read-out and setting: under `Cc1ccc(O)cc1` stands > 10 µM (inactive); under `CO[C@H]1O[C@@H]2O[C@@]3(C)CC[C@H]4[C@H](C)CC[C@@H]([C@@H]1C)[C@@]24OO3`, > 10 µM (inactive).
`Cc1cc(O)c2ccccc2c1O`: the IC50 was 9.85 µM (inactive).
On the same count and under the same terms, under `O=NN(CCCl)C(=O)NC1CCCCC1` stands > 10 µM (inactive); under `O=C(Nc1ccc(Br)cc1)c1cc(Br)cc(Br)c1O`, > 10 µM (inactive).
In the case of `CC(=O)O[C@H]1C[C@H](O[C@H]2[C@@H](O)C[C@H](O[C@@H]3[C@@H](O)C[C@H](O[C@H]4CC[C@@]5(C)[C@H](CC[C@@H]6[C@H]5C[C@@H](O)[C@]5(C)[C@@H](C7=CC(=O)OC7)CC[C@]65O)C4)O[C@@H]3C)O[C@@H]2C)O[C@H](C)[C@H]1O[C@@H]1O[C@H](CO)[C@@H](O)[C@H](O)[C@@H]1O`, the pIC50 is 6.55.
On to `CCc1cccc(N(C)C(N)=Nc2cccc3ccccc23)c1`, for which the IC50 is > 10 µM (inactive).
On to `O=c1[nH]sc2cc(Cl)ccc12`, for which the IC50 is 9.43 µM (inactive).
On to `C[C@@]12C(=O)OC(=O)[C@]1(C)C1CCC2O1`, for which the IC50 was 8.33 µM (inactive).
Regarding `CCc1c2c(nc3ccc(OC(=O)N4CCC(N5CCCCC5)CC4)cc13)-c1cc3c(c(=O)n1C2)COC(=O)[C@]3(O)CC`, the IC50 is 8.12 µM (inactive).
Still for that read-out and setting: the result for `Cc1cccc(C)c1NC(=O)CN1CCN(CCCC(c2ccc(F)cc2)c2ccc(F)cc2)CC1` reads 9.37 µM (inactive); that for `Cc1cc(N)c2ccccc2[n+]1CCCCCCCCCC[n+]1c(C)cc(N)c2ccccc21`, > 10 µM (inactive); that for `CC(C)=CCC/C(C)=C/CC/C(C)=C/C(=O)OCC(=O)[C@@]1(O)CC[C@H]2[C@@H]3CCC4=CC(=O)C=C[C@]4(C)[C@H]3[C@@H](O)C[C@@]21C`, > 10 µM (inactive).
Take `CC(=O)Oc1ccc(C2(c3ccc(OC(C)=O)cc3)C(=O)Nc3ccccc32)cc1`: the IC50 was > 10 µM (inactive).
Turning to `CC[C@@H]([C@H](C)O)n1ncn(-c2ccc(N3CCN(c4ccc(OC[C@@H]5CO[C@@](Cn6cncn6)(c6ccc(F)cc6F)C5)cc4)CC3)cc2)c1=O`, the IC50 is > 10 µM (inactive).
For the compound `CC[C@]1(O)C[C@@H]2CN(CCc3c([nH]c4ccccc34)[C@@](C(=O)OC)(c3cc4c(cc3OC)N(C)[C@H]3[C@@](O)(C(=O)OC)[C@H](OC(C)=O)[C@]5(CC)C=CCN6CC[C@]43[C@@H]65)C2)C1`, the IC50 is > 10 µM (inactive).
The same measure, in the same setting: under `Cc1cc(-c2ccc(N=Nc3c(S(=O)(=O)O)cc4cc(S(=O)(=O)O)cc(N)c4c3O)c(C)c2)ccc1N=Nc1c(S(=O)(=O)O)cc2cc(S(=O)(=O)O)cc(N)c2c1O` stands > 10 µM (inactive); under `Oc1ccc(Cl)cc1Cc1cc(Cl)ccc1O`, 6 µM (inactive); under `C=CCN1CC[C@]23CCCC[C@H]2[C@H]1Cc1ccc(O)cc13`, > 10 µM (inactive).
As to `CC1(C)[C@H](C=C(Cl)Cl)[C@@H]1C(=O)OCc1c(F)c(F)cc(F)c1F`, the IC50 is > 10 µM (inactive).
Consider `O=c1oc2c(O)c(O)cc3c(=O)oc4c(O)c(O)cc1c4c23`, for which the IC50 is > 10 µM (inactive).
Take `C#C[C@]1(O)CC[C@@H]2[C@@H]3CCC4=CCCC[C@@H]4[C@H]3C(=C)C[C@@]21CC`: the IC50 was 9.57 µM (inactive).
The same measure, in the same setting: the result for `C=CCCCCCCCCC(=O)OC` reads > 10 µM (inactive); that for `Cc1c(C)c2c(c(C)c1O)CC[C@@](C)(CCC[C@H](C)CCC[C@H](C)CCCC(C)C)O2`, > 10 µM (inactive).
With `O=[N+]([O-])c1cc(I)c(O)c(I)c1`, the IC50 was > 10 µM (inactive).
Take `O=c1[nH]c(=O)n([C@H]2C[C@H](O)[C@@H](CO)O2)cc1Br`: the IC50 is > 10 µM (inactive).
Regarding `COc1ccc(CCN2CCC(Nc3nc4ccccc4n3Cc3ccc(F)cc3)CC2)cc1`, the IC50 was > 10 µM (inactive).
For the compound `Cc1ccccc1C(=O)Nc1ccc(C(=O)N2CCCC(N(C)C)c3ccccc32)cc1` (centres undefined), the IC50 is > 10 µM (inactive).
